These results are taken from ChEMBL document CHEMBL1201862, “PubChem BioAssay data set” (2004).

What all share (experiment): NCI anticancer screen, dose series, 48 h
The subject of assay [1] is HOP-92.
The test system of assay [2] is SF-268.
The test system of assay [3] is OVCAR-4.
The test system of assay [4] is Malme-3M.
Assay [5] relates to HL-60.
The test system of assay [6] is SK-MEL-28.
The test system of assay [7] is SNB-75.
For assay [8], the system named is TK-10.
For assay [9], the system named is SK-MEL-2.
Assay [10] relates to K562.
Assay [11] concerns SF-295.
The test system of assay [12] is SF-539.
The subject of assay [13] is HCT-116.
Assay [14] relates to Hs-578T.
Assay [15] concerns MCF7.
Assay [16] relates to HT-29.
Assay [17] deals with IGROV-1.
The subject of assay [18] is UO-31.
Assay [19] deals with OVCAR-3.

Structures are written as SMILES.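 Protocol summary: plate cells (96-well), add compound at 5 concentrations, incubate 48 h, interpolate endpoints linearly. GI50 is the concentration that inhibits growth by half.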 Active and inactive are the calls of the source. No stated cut-off is given here; in the data, active = GI50 up to about 1.1 µM and inactive = higher.

Take `CCOC(C)C(/C=N/NC(N)=S)=NNC(N)=S` (stereo not given) [GLOXAZONE]: the GI50 in assay [1] is 46.1 µM (inactive); in assay [2], > 100 µM (inactive); in assay [3] it was > 100 µM (inactive); in assay [4] it was 92.3 µM (inactive); in assay [5], 0.0531 µM (active); in assay [6], > 74.1 µM (inactive). In addition, the GI50 in assay [7] is 40.3 µM (inactive); in assay [8] it was > 100 µM (inactive); in assay [9] it was 29.1 µM (inactive); in assay [10], < 0.0195 µM (active); in assay [11], 1.64 µM (inactive); in assay [12], > 100 µM (inactive).
Turning to `COc1ccc(C2SC(=N)Nc3c2c(C)nn3C(=O)Cc2ccccc2)cc1` (stereo not given), the GI50 in [13], in assay [2], in assay [4], in assay [14], in assay [5] and in assay [15] was > 100 µM (inactive) each time. For the same compound, the GI50 is > 100 µM (inactive) in assay [6]; 10.9 µM (inactive) in assay [7]; > 100 µM (inactive) in assay [8]; > 100 µM (inactive) in assay [10]; > 100 µM (inactive) in assay [11]; > 100 µM (inactive) in assay [16]. Further, the GI50 in assay [12], in assay [17] and in assay [18] was > 100 µM (inactive) throughout.
With `CCOC(=O)CCC(NC(=O)OCc1ccccc1)C(=O)NC(CCC(=O)OCC)C(=O)NC(CCC(=O)OCC)C(=O)NC(CCC(=O)OCC)C(=O)NC(CCC(=O)OCC)C(=O)OCC` (stereo not given), the GI50 in assay [13], in assay [3], in [4], in assay [14], in assay [15] and in assay [6] was > 100 µM (inactive) each time. The GI50 in [7], in assay [8], in assay [9], in assay [11], in assay [16] and in assay [17] was > 100 µM (inactive) throughout. In addition, in assay [18], the GI50 is > 100 µM (inactive).
Regarding `CCn1ncc2c(=O)n3ncn(-c4ccc(Br)cc4)c3nc21`, the GI50 in assay [13], in assay [2], in [3], in assay [4], in assay [14] and in [5] was > 100 µM (inactive) throughout. Besides, the GI50 in assay [15], in [6], in assay [7], in assay [8], in assay [9] and in [10] was > 100 µM (inactive) each time. The GI50 in assay [11], in assay [16], in assay [17], in assay [18] and in assay [19] was > 100 µM (inactive) each time.
As for `C=CCN(c1cc(OCc2ccccc2)c2c(c1)c(C)cn2S(=O)(=O)c1ccccc1)S(C)(=O)=O`, the GI50 in assay [13], in assay [1], in [2], in assay [3], in assay [4] and in assay [14] was > 100 µM (inactive) each time. Moreover, the GI50 in assay [5], in assay [6], in assay [7], in assay [8], in assay [9] and in assay [10] was > 100 µM (inactive) throughout. Besides, the GI50 in [11], in [16], in assay [12], in assay [17] and in [19] was > 100 µM (inactive) in each case.
For the compound `O=C(NC(CCCCN1C(=O)c2ccccc2C1=O)P(=O)(Oc1ccccc1)Oc1ccccc1)OCc1ccccc1` (stereo not given), the GI50 in assay [1], in [2], in [4], in assay [14], in assay [15] and in assay [6] was > 100 µM (inactive) each time. Besides, the GI50 in [7] is 0.01 µM (active); in [8], > 100 µM (inactive); in assay [9], > 100 µM (inactive); in [11], > 100 µM (inactive); in assay [16], > 100 µM (inactive); in assay [12], > 100 µM (inactive). Also, the GI50 in [17], in assay [18] and in assay [19] was > 100 µM (inactive) each time.
In the case of `CC1=C2C(=O)O[C@@H](c3ccoc3)[C@]2(C)CCC1=O` [FRAXINELLONONE], the GI50 in assay [13], in assay [1], in [15], in assay [6], in assay [7] and in assay [9] was > 100 µM (inactive) each time. The GI50 in assay [10], in assay [11], in assay [12], in assay [17], in [18] and in assay [19] was > 100 µM (inactive) throughout.
With `CN1NC2(CCCCC2)ON=C1c1ccccc1`, the GI50 in assay [13], in assay [1], in assay [2], in assay [3], in assay [4] and in assay [5] was > 100 µM (inactive) throughout. Further, the GI50 in assay [6], in assay [7], in [8], in assay [10], in assay [11] and in assay [16] was > 100 µM (inactive) throughout. The GI50 in assay [12], in [17] and in assay [19] was > 100 µM (inactive) in each case.
Turning to `O=C1[C@H](O)[C@@H]2C(O)O[C@H]3[C@@H]2N1C[C@H]3[Si](c1ccccc1)(c1ccccc1)c1ccccc1` (stereo not given in full), the GI50 in assay [13] is > 100 µM (inactive); in assay [2], > 100 µM (inactive); in assay [3], > 100 µM (inactive); in assay [15], > 100 µM (inactive); in assay [6] it was > 100 µM (inactive); in [7], 5.94 µM (inactive). The GI50 in [8], in assay [9], in [10], in assay [11], in assay [16] and in assay [12] was > 100 µM (inactive) each time. The GI50 in [17], in assay [18] and in [19] was > 100 µM (inactive) each time.
Consider `CC(=O)NC1C(OC(C)C(=O)NC(C)C(=O)NC(CCC(=O)NCCCCCNc2ccc([N+](=O)[O-])c3[nH]c4ccccc4c(=O)c23)C(N)=O)C(O)C(CO)OC1(C)OCc1ccccc1` (stereo not given), for which the GI50 is 23.7 µM (inactive) in assay [13]; > 100 µM (inactive) in assay [2]; > 100 µM (inactive) in [3]; > 100 µM (inactive) in assay [4]; > 100 µM (inactive) in assay [14]; 73.3 µM (inactive) in [15]. The GI50 is > 100 µM (inactive) in assay [7]; 11.9 µM (inactive) in [8]; > 100 µM (inactive) in assay [9]; 45.3 µM (inactive) in assay [10]; > 100 µM (inactive) in [11]; 30.9 µM (inactive) in assay [16]. Further, the GI50 is 64.1 µM (inactive) in assay [12], 64.1 µM (inactive) in assay [17], 50.4 µM (inactive) in [18] and > 100 µM (inactive) in [19].
For `Cc1ccc(C2(c3ccc(C)c(O)c3C)CCN(C)CC2)c(C)c1O`, the GI50 was 38.5 µM (inactive) in [13]; > 100 µM (inactive) in assay [1]; > 100 µM (inactive) in [2]; > 100 µM (inactive) in assay [3]; 52.7 µM (inactive) in assay [4]; > 100 µM (inactive) in [14]. In addition, the GI50 is 30.4 µM (inactive) in [6]; > 100 µM (inactive) in assay [7]; 19.9 µM (inactive) in assay [8]; 26.9 µM (inactive) in [9]; 84.7 µM (inactive) in [10]; 33.3 µM (inactive) in assay [11]. Moreover, the GI50 in [16] is 45.1 µM (inactive); in [17], > 100 µM (inactive); in assay [18], > 100 µM (inactive); in assay [19] it was 54 µM (inactive).
For `CCC(C(=O)C(=O)OC)P1(=O)OC(C)(C)CN1C(C)(C)C` (stereo not given), the GI50 in [13] was > 100 µM (inactive); in assay [2] it was > 100 µM (inactive); in assay [3], > 100 µM (inactive); in assay [4], > 100 µM (inactive); in [15] it was 26.9 µM (inactive); in assay [6], 11.9 µM (inactive). For the same compound, the GI50 in assay [7], in [8], in assay [9], in assay [10], in assay [11] and in assay [16] was > 100 µM (inactive) in each case. For the same compound, the GI50 in [12], in [17], in assay [18] and in assay [19] was > 100 µM (inactive) in each case.
With `COc1cc(CNc2nc3cc(C(F)(F)F)ccc3nc2C)cc(OC)c1OC`, the GI50 in assay [13] was 19.3 µM (inactive); in assay [2], 25.6 µM (inactive); in [4] it was 17.5 µM (inactive); in assay [14], 13.5 µM (inactive); in [5], 16.5 µM (inactive); in assay [15], > 10 µM (inactive). The GI50 in assay [6] is 20.4 µM (inactive); in [7] it was 19.4 µM (inactive); in assay [8] it was 15.7 µM (inactive); in assay [10], 23 µM (inactive); in [11], 19.1 µM (inactive); in assay [16], 17.2 µM (inactive). Also, the GI50 was 21.6 µM (inactive) in assay [12], 14.7 µM (inactive) in assay [17], 17.7 µM (inactive) in assay [18] and 25.2 µM (inactive) in assay [19].
